Reference: patent US5158969A, “Indole derivatives as potassium channel blockers” (NeuroSearch A/S, priority 1991, dated 1992)

Key:
[1] = system: immobility of female NMRI mice; test: Tail suspension test; type: in vivo; details: 30 min before test, 6 min suspension
Protocol: 1-(4-methoxyphenyl)-indole has been studied in the socalled tail suspension test as described by L. Steru et al., Prog. Neuro-Psychopharmacol. Biol. Psychiatry 11, 659-671 (1987). Female NMRI mice (20-25 g, 10 mice per dose) were suspended by the tail with adhesive tape for 6 min. The mice alternated between phases of activity (trying to escape) and immobility (despair). The duration of immobility was recorded manually. Saline, 1-(4-methoxyphenyl)-indole or desipramine were administered i.p. 30 min before the start of the test.

BKCa channel [2] = test: Single channel patch-clamp in pancreatic β-cells; type: cell-based
Protocol: (§1) All electrophysiological experiments were performed with patch-clamp technique (Hamill et al., Pflugers Arch. 391, 85-100 (1981). The ion composition of the internal solution was (in mM) 4 NaCl, 140 KCl, 1 CaCl2, 1 MgCl2, 2 EGTA, 10 HEPES and the external solution contained 140 NaCl, 4 Kcl, 2 CaCl2, 1 MgCl2 and 10 HEPES.

BKCa channel [3] = test: Single channel patch-clamp, inside-out patches of bovine aortic smooth muscle cells; type: cell-based; details: 20 μM
Protocol: as §1

[4] = system: social recognition memory of adult male Wistar rats; test: Social recognition model; type: in vivo, rat
Protocol: In short, adult male Wistar rats (350 g) were housed individually in normal transparent plexiglas cages. After a habituation period of at least 24 hours a juvenile male Wistar rat (25-30 days old) was introduced in the cage in a 5 min period (first exposure). A second exposure of the same juvenile rat for another 5 min period was performed either 5 min later or 120 min later. In one case, another juvenile rat was introduced 120 min after an exposure of a juvenile rat. The adult rat was administered either saline or different doses of 1-(4-methoxyphenyl)-indole i.p. 15 min before the first exposure of the juvenile rat.
In both sessions (1st and 2nd exposure period) the total duration of investigatory behaviour consisting of sniffing, nosing and grooming performed by the adult rat was noted.
The adult rat (n=10-20) used generally 100-110 sec investigating the juvenile rat on the first exposure. […] The memory seems basically to be based on recognition of urine odour.

Row | SMILES | duration of immobility ([1]; doses between 10 and 100 mg/kg i.p.) | block of the BKCa channel (BKCa channel [2]) | block of the BKCa channel (BKCa channel [3]) | investigatory behaviour on the second exposure with a new (unknown) juvenile rat ([4]; 30 mg/kg i.p. 15 min before first exposure, new juvenile rat) | investigatory behaviour on the first exposure ([4]; 7.5-30 mg/kg i.p. 15 min before first exposure) | investigatory behaviour on the second exposure of the same juvenile rat ([4]; 7.5-30 mg/kg i.p., second exposure 120 min later, same juvenile rat) | duration of immobility ([1]; doses between 1 and 30 mg/kg i.p.)
1 | COc1ccc(-n2ccc3ccccc32)cc1 [1-(4-methoxyphenyl)-indole] | inhibited the immobility dose-dependently | potently blocked the BKCa channel | potently at 20 μM blocked the BKCa channel | normal investigatory behaviour was seen | did not interfere with the adult rats investigatory behaviour | significant decrease in investigatory behaviour | –
2 | CNCCCN1c2ccccc2CCc2ccccc21 [Desipramine, reference compound] | – | – | – | – | – | – | reduced the immobility dose-dependently
